Data as given in US10658848B2, “Materials for use with aqueous redox flow batteries and related methods and systems” (Massachusetts Institute of Technology, priority 2014, dated 2020).
Converted amounts (≈) assume the structure as drawn. Like-named read-outs stand apart in the source and are kept apart here.

Legend:
Type in all cases: physicochemical
[1] = Quantitative CV and rotating disk voltammetry with numerical fitting (Randles-Sevcik, Levich); settings: for DO, diffusion coefficient for quinoxaline / DR, diffusion coefficient for the reduced species / α, transfer coefficient for the reduction (forward) reaction: 295 K; for number of electrons transferred, n: ± 95% confidence interval
Excerpt: A set of quantitative experiments were designed to calculate the number of electrons transferred, diffusion coefficients, and transfer coefficients using the Randles-Sevcik equation for irreversible CVs (Eq. (E1)) and the Levich equation (Eq. (E2)). In Eq. (E1), ip is the peak current, n is the number of electrons transferred, α is the transfer coefficient, A is the electrode surface area, F is Faraday's constant, C is the reactant concentration, s is the scan rate, R is the universal gas constant, T is temperature, and D is the diffusion coefficient (e.g., see Compton et al. Understanding Voltammetry, 2nd ed., Imperial College Press, London, 2011). Additionally, in Eq. (E2), iL is the RDV limiting current, ω is the electrode rotation rate, and v is the kinematic viscosity (e.g., see Bard et al. Electrochemical Methods: Fundamentals and Applications, John Wiley & Sons, Danvers, 2001). Kinematic viscosities were determined from dynamic viscosities, which were interpolated from tables by Zaytsev and […] et al. Properties of Aqueous Solutions of Electrolytes, 1st ed., CRC Press, Boca Raton, 1992), and electrolyte densities, which were measured using a balance and known solution volume. All remaining variables are constants or were determined by the experimental design. Quantitative CV and RDV experiments were carried out in a water-jacketed three-electrode cell. Chilled water at a temperature of 295 K (22° C.) was continuously passed through the water jacket in order to maintain a constant temperature throughout the experiment. A rotating disk electrode with a 0.5 cm diameter glassy carbon electrode (0.196 cm^2) was used as a working electrode. A coiled Pt wire used as a counter electrode was housed in a glass compartment that was separated from the main chamber by a porous frit. Both chambers were filled with the same bulk electrolyte. The reference electrode was a double junction Ag/AgCl (10% KNO3), which had been calibrated against a commercially available reversible hydrogen electrode (BAS Inc.) in 1 M NaHCO3 solution by measuring OCV between the two electrodes. All cell components were purchased from Pine Instruments Co., including the rotator and motor used in RDV experiments. Cells were filled with 80 mL of solution, and the solution was bubbled with argon using a porous glass frit at a rate of 50 mL/min for 1 h before taking any electrochemical measurements. After 1 h, the argon gas bubbling stream was switched to an argon gas blanket above the solution. Three cycles of CV, with a stationary electrode, were recorded at each of the following scan rates: 5, 10, 20, 50, and 100 mV/s. Between CV and RDV experiments, the glassy carbon electrode was re-polished before beginning RDV experiments. […] Quantitative voltammetry experiments were performed in triplicate using freshly prepared solution and freshly polished glassy carbon electrodes for each trial. CV experiments were performed at five different scan rates, and RDV experiments were performed at five different rotation speeds for each electrolyte of interest. The aim of these experiments was to determine the number of electrons transferred during a quinoxaline redox reaction, the diffusion coefficients of quinoxaline and its reduced species in each electrolyte, and the transfer coefficients of the redox reactions. FIG. 5a-e and FIG. 6a-e display the third cycle of typical CV data at different scan rates and the second cathodic scan of typical RDV data at different rotation rates, respectively. In order to quantitatively determine the number of electrons transferred, a numerical fitting technique was employed. Among the irreversible Randles-Sevcik (Eq. (E1)) and Levich (Eq. (E2)) equations, there are four unknown variables: the number of electrons transferred, n, two diffusion coefficients, DO/DR, and the transfer coefficient, α. […]

[2] = Solubility limit of quinoxaline in electrolytes and DI H2O; settings: thermodynamic from solid
Description: The solubility limit (at room temperature) of quinoxaline in several electrolytes and DI H2O was estimated using the following method. Scintillation vials were filled with a known volume of electrolyte, and quinoxaline was added in 0.5 M increments. The vials were then vortex sonicated for ˜5 min between quinoxaline additions. Once no more quinoxaline could be dissolved into the vial, the solubility limit was recorded. This method was accurate to the lowest 0.5 M concentration, and solution volume changes due to quinoxaline addition were not considered.

[3] = Repeated CV cycling of 5 mM quinoxaline in 1 M potassium chloride
Description: Electrochemical experiments were carried out using other electrolytes.

[4] = 0.45M K2SO4/0.1M KOH, pH 12.9, n=2 fixed
[5] = 0.495M K2SO4/0.01M KOH, pH 11.8, n=2 fixed
[6] = 0.9M KCl/0.1M KOH, pH 12.9, n=2 fixed
[7] = 0.99M KCl/0.01M KOH, pH 11.8, n=2 fixed

For `c1ccc2nccnc2c1` [quinoxaline], the “DO, diffusion coefficient for quinoxaline” value (“DO, diffusion coefficient” below) [1, 4] was 7.3 ± 1.7 10^−6 cm^2/s, the “DR, diffusion coefficient for the reduced species” value (shortened to “DR … for the reduced species”) [1, 4] was 4.4 ± 0.4 10^−6 cm^2/s and the “α, transfer coefficient for the reduction (forward) reaction” value [1, 4] was 0.60 ± 0.00. For the same compound, the “number of electrons transferred, n” value ([1]; 0.45M K2SO4/0.1M KOH, pH 12.9) was 2.54 ± 0.43, the “DO, diffusion coefficient” value [1, 5] was 6.4 ± 0.7 10^−6 cm^2/s and the “DR … for the reduced species” value [1, 5] was 4.8 ± 1.0 10^−6 cm^2/s. For the same compound, the “α, transfer coefficient for the reduction (forward) reaction” value [1, 5] was 0.59 ± 0.00, the “number of electrons transferred, n” value ([1]; 0.495M K2SO4/0.01M KOH, pH 11.8) was 2.26 ± 0.33 and the “DO, diffusion coefficient” value [1, 6] was 6.7 ± 0.4 10^−6 cm^2/s. For the same compound, the “DR … for the reduced species” value [1, 6] was 5.9 ± 1.0 10^−6 cm^2/s, the “α, transfer coefficient for the reduction (forward) reaction” value [1, 6] was 0.62 ± 0.02 and the “number of electrons transferred, n” value ([1]; 0.9M KCl/0.1M KOH, pH 12.9) was 2.90 ± 0.03. For the same compound, the “DO, diffusion coefficient” value [1, 7] was 6.0 ± 0.6 10^−6 cm^2/s, the “DR … for the reduced species” value [1, 7] was 4.9 ± 2.2 10^−6 cm^2/s and the “α, transfer coefficient for the reduction (forward) reaction” value [1, 7] was 0.59 ± 0.04. The “number of electrons transferred, n” value ([1]; 0.99M KCl/0.01M KOH, pH 11.8) was 1.89 ± 0.21, the “DO, diffusion coefficient” value ([1]; 1M KOH, pH 13.7, n=2 fixed) was 5.8 ± 0.9 10^−6 cm^2/s and the “DR … for the reduced species” value ([1]; 1M KOH, pH 13.7, n=2 fixed) was 4.0 ± 1.7 10^−6 cm^2/s. For the same compound, the “α, transfer coefficient for the reduction (forward) reaction” value ([1]; 1M KOH, pH 13.7, n=2 fixed) was 0.60 ± 0.05, the “number of electrons transferred, n” value ([1]; 1M KOH, pH 13.7) was 2.34 ± 0.72 and the “diffusion coefficient of quinoxaline relative to the reduced species” value ([1]; in each electrolyte of Table E3) was 1.1-1.7 ×. For the same compound, the “mean calculated value for n (navg)” value ([1]; mean over the electrolytes in Table E2) was 2.34, the “transfer coefficient α for the forward reaction” value ([1]; overall, n=2 fixed) was “≈ 0.6” and the “number of electrons transferred, n, rounded to nearest integer” value ([1]; rounded from navg) was 2. The theoretical capacity ([1]; two-electron transfer process) was 410 mAh/g, the solubility ([2]; 0.45 M K2SO4/0.1 M KOH electrolyte, aqueous buffer, 0.45M K2SO4/0.1M KOH, pH 12.9, room temperature, three phase separation, read-out: Solubility Limit) was 500 mM (≈ 65.1 mg/mL) and the solubility ([2]; 0.495 M K2SO4/0.01 M KOH electrolyte, aqueous buffer, 0.495M K2SO4/0.01M KOH, pH 11.8, room temperature, three phase separation, read-out: Solubility Limit) was 500 mM (≈ 65.1 mg/mL). For the same compound, the solubility ([2]; 0.9 M KCl/0.1 M KOH electrolyte, aqueous buffer, 0.9M KCl/0.1M KOH, pH 12.9, room temperature, bed of small crystals, read-out: Solubility Limit) was 4000 mM (≈ 521 mg/mL), the solubility ([2]; 0.99 M KCl/0.01 M KOH electrolyte, aqueous buffer, 0.99M KCl/0.01M KOH, pH 11.8, room temperature, bed of small crystals, read-out: Solubility Limit) was 4000 mM (≈ 521 mg/mL) and the solubility ([2]; 1 M KOH electrolyte, aqueous buffer, 1M KOH, pH 13.7, room temperature, dendritic precipitation of crystals, read-out: Solubility Limit) was 500 mM (≈ 65.1 mg/mL). It also gave a solubility ([2]; aqueous electrolytes containing K2SO4 or only KOH, aqueous buffer, read-out: solubility of quinoxaline) of no more than 500 mM, a solubility ([2]; solutions containing KCl, aqueous buffer, read-out: solubility of quinoxaline) of no more than 4000 mM and a solubility ([2]; water, DI H2O, pH 7.0, room temperature, bed of small crystals, read-out: Solubility Limit) of 4500 mM (≈ 586 mg/mL). The “peak currents on repeated cycling” value ([3]; 5 mM quinoxaline in 1 M potassium chloride with 10 mM potassium hydroxide) was “no decrease in peak currents was observed after 100 or 200 cycles” and the “cathodic and anodic currents on repeated cycling” value ([3]; 5 mM quinoxaline in 1 M potassium chloride, no added base, glassy carbon electrode) was “decreased with repeated cycling”.
